Assay results: publication PMC5826917, “A small molecule inhibitor of Nicotinamide N-methyltransferase for the treatment of metabolic disorders” (Scientific Reports, 2018)

How the values were obtained:
human NNMT (hNNMT) = biological target: T1, human NNMT (hNNMT) (Homo sapiens, UniProt P40261); assay: Fluorescence based NNMT enzymatic assay (human); conditions: fluorescence based biochemical assay
T1 construct: The full length NNMT proteins (1–264 amino acids) of human & mouse; 6 × His tag (N); TEV cleavage site (ENLYFQG) (N); made in house; host or cells: E. coli Rosetta2(DE3)pLysS
Procedure: NNMT activity was measured with the fluorescence enzymatic assay[22],[23]. MNA formed in the NNMT reaction reacts with acetophenone in the presence of KOH and formic acid and forms a fluorescent product 2, 7- naphthyridine. JBSNF-000088 was screened using human, mouse and monkey NNMT enzymes. Different concentrations of inhibitors were preincubated along with the enzyme for 30 minutes at room temperature. Reaction was initiated by addition of SAM and nicotinamide mixture (7 µM, 20 µM, 8 µM SAM and 6 µM, 20 µM, 9 µM nicotinamide for human, mouse and monkey NNMT assays respectively) for 60 minutes at 37 °C. The final assay reaction mixture contained a buffer of 100 mM Tris Hcl pH 7.5, 0.04% BSA, 2 mM dithiothreitol and 1% DMSO. At the end of the incubation, the reaction was stopped by the addition of ethanol: acetophenone mix (75% ethanol: 25% acetophenone) and 5 M potassium hydroxide prepared with 50% ethanol. The reaction was incubated for 15 minutes following which 100 µL of 60% formic acid was added. […] The fluorescent product 2, 7- naphthyridine was measured using a Tecan reader with excitation at 375 nm and emission at 430 nm. The IC50 values were determined by fitting the inhibition curves (percent inhibition versus inhibitor concentration) using a four parametric sigmoidal dose response using GraphPad Prism software.

[1] = test system: mice with diet-induced obesity (DIO); assay: Chronic efficacy study in diet-induced obesity (DIO) mice; type: in vivo, C57BL6/N mice
Procedure: Samples for MNA were analyzed employing a fit-for-purpose LC-MS/MS method. PE-Sciex API-4000 triple quadrupole (PerkinElmerSciex Instruments, Boston, MA) mass spectrometer was employed for this analysis. Samples (5 µL) were injected onto Kinetex HILIC (50 × 4.6 mm, 2.6 µm; Phenomenex, Torrance, CA, USA) column connected to Shimadzu VP (Shimadzu, Japan) LC system. The gradient mobile phase mixture of 0.2% formic acid and acetonitrile was delivered at a flow rate of 0.45 ml min-1 into the mass spectrometer electrospray ionization (ESI) chamber. Quantitation was achieved by MS/MS detection in positive ion mode for MNA and internal standard (d4–MNA). Detection of the ions was performed in the multiple reaction monitoring (MRM) mode, monitoring the transition of the m/z 137 precursor ion to the m/z 92 product ion for MNA and m/z 141 precursor ion to the m/z 84 product ion for d4-MNA (internal standard).
A simple protein precipitation extraction method was followed for extraction of N-methylnicotinamide from plasma and various tissue homogenate samples. The tissue samples were homogenized with 1:3 proportions of phosphate buffer saline (PBS) and this homogenate was used for N-Methylnicotinamide determinations. To an aliquot of ~50 μL of plasma/ liver homogenate/ adipose tissue homogenate samples ~300 µl of acetonitrile containing IS (d4-MNA) solution was added, followed by vortex for ~3 minutes and centrifuged for 10 minutes at 14,000 rpm. The supernatant was separated and transferred to pre-labeled HPLC vials and analyzed by LC-MS/MS system.
Male C57BL6/N (Vivo Bio Tech Ltd, India), ob/ob (B6.V-Lepob/OlaHsd) and its lean control (Envigo laboratories Inc, USA) and db/db (BKS.Cg- + Leprdb/ + Leprdb/OlaHsd) and its lean control (Envigo laboratories Inc, USA) were housed in individually ventilated cages (n = 5/cage) under standard laboratory conditions. The study room environment was maintained at a temperature of 21–24 °C and, relative humidity at 40–70%. The animal rooms were maintained under 12 h light and dark cycle. Animals were provided with ad libitum access to water and food (except where noted otherwise, e.g. during fasting prior for glucose tolerance tests, fasting prior to terminal sacrifice). Animals were acclimatized for 1 week before initiation of studies. For Diet induced obesity (DIO) mice study, C57BL6/N mice were maintained on rodents chow diet (Teklad; Harlan) or HFD (60% Kcal; Research diet) for 14 weeks before study initiation and throughout the study period. ob/ob and db/db mice and their lean controls were maintained on rodents chow diet (Teklad; Harlan). All the experiments were approved by Institutional Animal Ethics Committee (IAEC) of Jubilant Biosys Ltd, India.
Lean control + Vehicle and HFD + Vehicle Control groups (G1 and G2) mice were administered with vehicle. Dose formulations of HFD + JBSNF-000088, 50 mg kg^−1, po, bid were administered at dose volume of 5 mL kg^−1 body weight to G3 mice. Similar pattern was followed for ob/ob mice and db/db mice studies. The dose volume for individual animals was calculated based on the most recently recorded body weight during the study period. […] Cage side observations of animals for visible clinical signs, was carried out once daily throughout the study period. Individual animal body weights were recorded twice weekly during the study period.
The ob/ob mice were 12 weeks of age at the start of the study and db/db mice were 8 weeks of age at the start of the study. DIO mice were 20 weeks of age at the start of the study. In each study, non-diabetic lean mice comprised the control group which received vehicle (0.5% w/v HEC and 0.5% v/v Tween 80) and obese or diabetic mice were randomly assigned to two groups based on body weight and unfasted glucose which received either vehicle (0.5% w/v HEC and 0.5% v/v Tween 80) or JBSNF-000088, 50 mg kg^−1, po, bid for 30 days.

T1 sequence (P40261 whole entry, the tested form may be a part): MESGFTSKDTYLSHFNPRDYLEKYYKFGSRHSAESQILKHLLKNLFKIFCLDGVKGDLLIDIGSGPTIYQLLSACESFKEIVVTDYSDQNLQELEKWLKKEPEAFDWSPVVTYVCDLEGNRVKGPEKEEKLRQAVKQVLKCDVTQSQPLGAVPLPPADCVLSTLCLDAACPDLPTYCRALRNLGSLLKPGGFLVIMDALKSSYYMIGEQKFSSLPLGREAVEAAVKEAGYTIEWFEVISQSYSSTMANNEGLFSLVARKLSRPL

In the case of COc1ccc(C(N)=O)cn1 [JBSNF-000088, 6-methoxynicotinamide], the IC50 (human NNMT (hNNMT)) is reported as 1800 nM, the “body weight (%)” value ([1]; 50 mg kg^−1 b.i.d. p.o., four weeks, vs vehicle) is reported as “statistically significant reduction” and the cumulative food intake ([1]; 50 mg kg^−1 b.i.d. p.o., vs vehicle) is reported as “comparable”. For the same compound, the fed plasma insulin ([1]; day 14, p < 0.01 vs HFD control) was “trend to a reduction in fed plasma insulin that was statistically significant on day 14”, the fed blood glucose ([1]; day 21, p < 0.01 vs vehicle control) was “statistically significant reduction” and the oral glucose tolerance ([1]; day 28, normalized to chow control group) was “statistically significant improvement”. The “AUC blood glucose (OGTT)” value ([1]; day 28, p < 0.001 vs HFD control) was “Significantly lower”, the “MNA levels in visceral WAT” value ([1]; p < 0.0001 vs HFD control) was “statistically significant reduction” and the “plasma insulin at 0 and 15 minutes of OGTT” value ([1]; p < 0.0001 vs HFD control) was “statistically significant lower”. The HOMA-IR index ([1]; p < 0.0001 vs vehicle-treated HFD controls) was “statistically significant improvement”, the plasma triglyceride ([1]; p < 0.001 vs HFD control, data not shown) was “statistically significant reduction” and the liver triglyceride ([1]; p < 0.05 vs HFD control, data not shown) was “statistically significant reduction”.
